Experiments:
[1] = Solubility assessment, 20 mg/ml solution; type: physicochemical; details: for Solubility, 20 mg/ml Solution: 100 mM in DMSO diluted in DMEM growth media to 20 mg/ml
Procedure: Solubility is an important property for therapeutic drug candidates. Poor solubility can lead to low bioavailability resulting in suboptimal drug delivery. It can also prevent the evaluation of test agents in animals because the concentration(s) needed to achieve the desired effect cannot be achieved to poor solubility. For solubility assessments, small molecules targeting RSK were compared. For these assessments, 100 mM solutions of the compounds dissolved in DMSO were diluted in DMEM growth media (Life Technologies) supplemented with fetal bovine serum (FBS, Life Technologies) and 100 units/ml penicillin and 100 units/ml streptomycin (Life Technologies) to make 20 mg/ml solutions. Once diluted, the solutions were vortexed and examined for the formation of precipitates. […] For Compound 26, a 100 mM solution of the compound dissolved in DMSO was diluted in phosphate buffered saline (Life Technologies) to make a 20 mg/ml solution. The stock of […] was chosen because this is the upper end of what would be required to dose mice for a range of studies including MTD, PK, PD and efficacy. The pH of this solution was determined to be 2, as previously described. […] At high concentrations some RSK inhibitors were highly soluble while others were not. Compound 0 is (R)—N-(1-benzyl-1H-pyrazol-4-yl)-9-methyl-6-oxo-6,7,8,9-tetrahydropyrido[3′,2′:4,5]pyrrolo[1,2-a]pyrazine-2-carboxamide. Compound 0 was not soluble, whereas Compounds 18, 20, 21, 25 and 26 were soluble under the same conditions (Table 5).

[2] = system: 4T1 cells; experiment: Monolayer growth inhibition, Alamar blue assay; type: cell-based; details: Mus musculus; 4T1 (TNBC), 5 days, single dose on day 1
From the text: (§1) In all instances a single dose was given on day 1 of the experiment.

[3] = system: HCC1143 cells; experiment: Monolayer growth inhibition, Alamar blue assay; type: cell-based; details: Homo sapiens; HCC1143 (TNBC), 5 days, single dose on day 1
From the text: as §1

[4] = system: HCC1937 cells; experiment: Monolayer growth inhibition, Alamar blue assay; type: cell-based; details: Homo sapiens; HCC1937 (TNBC, BRCA Mutant), 5 days, single dose on day 1
From the text: as §1

[5] = system: JIMT-1 cells; experiment: Monolayer growth inhibition, Alamar blue assay; type: cell-based; details: Homo sapiens; JIMT-1 (HER2), 5 days, single dose on day 1
From the text: as §1

[6] = system: MDA-MB-231 cells; experiment: Monolayer growth inhibition, Alamar blue assay; type: cell-based; details: Homo sapiens; MDA-MB-231 (TNBC), 5 days, single dose on day 1
From the text: as §1

[7] = system: MDA-MB-435 cells; experiment: Monolayer growth inhibition, Alamar blue assay; type: cell-based; details: Homo sapiens; MDA-MB-435 (Melanoma), 5 days, single dose on day 1
From the text: as §1

[8] = system: MDA-MB-468 cells; experiment: Monolayer growth inhibition, Alamar blue assay; type: cell-based; details: Homo sapiens; MDA-MB-468 (TNBC), 5 days, single dose on day 1
From the text: as §1

[9] = system: PC3 cells; experiment: Monolayer growth inhibition, Alamar blue assay; type: cell-based; details: Homo sapiens, PC-3; PC3 (Prostate), 5 days, single dose on day 1
From the text: as §1

[10] = system: SUM149 cells; experiment: Monolayer growth inhibition, Alamar blue assay; type: cell-based; details: Homo sapiens; SUM149 (TNBC, BRCA Mutant), 5 days, single dose on day 1
From the text: as §1

[11] = system: SUM149-PTXR cells; experiment: Monolayer growth inhibition, Alamar blue assay; type: cell-based, Human; details: Homo sapiens; SUM149-PTXR (TNBC, BRCA Mutant), 5 days, single dose on day 1
From the text: as §1

[12] = system: T47D cells; experiment: Monolayer growth inhibition, Alamar blue assay; type: cell-based, Human; details: Homo sapiens; T47D (ER/PR), 5 days, single dose on day 1
From the text: as §1

[13] = system: All cell lines; experiment: Monolayer growth inhibition, Alamar blue assay, range over all cell lines; type: cell-based; details: 120 h; range of IC50 over all cell lines of the table; read-out: IC50 Values - Alamar Blue (5 Days), Range, All
From the text: as §1

[14] = system: HCC1937 cells; experiment: Monolayer growth inhibition, crystal violet assay; type: cell-based; details: Homo sapiens; HCC1937 (TNBC, BRCA Mutant), 5 days, single dose on day 1
From the text: (§2) In all instances a single dose was given on day 1 of the experiment. […] Complete (100%) growth suppression was achievable with several of the compounds in multiple different cell lines.

[15] = system: JIMT-1 cells; experiment: Monolayer growth inhibition, crystal violet assay; type: cell-based; details: Homo sapiens; JIMT-1 (HER2), 5 days, single dose on day 1
From the text: as §2

[16] = system: MDA-MB-468 cells; experiment: Monolayer growth inhibition, crystal violet assay; type: cell-based; details: Homo sapiens; MDA-MB-468 (TNBC), 5 days, single dose on day 1
From the text: as §2

[17] = system: T47D cells; experiment: Monolayer growth inhibition, crystal violet assay; type: cell-based; details: Homo sapiens; T47D (ER/PR), 5 days, single dose on day 1
From the text: as §2

[18] = system: 4T1 cells; experiment: Monolayer growth inhibition, crystal violet assay; type: cell-based; details: Mus musculus; 4T1 (TNBC), 5 days, single dose on day 1
From the text: as §1

[19] = system: HCC1143 cells; experiment: Monolayer growth inhibition, crystal violet assay; type: cell-based; details: Homo sapiens; HCC1143 (TNBC), 5 days, single dose on day 1
From the text: as §1

[20] = system: MDA-MB-231 cells; experiment: Monolayer growth inhibition, crystal violet assay; type: cell-based; details: Homo sapiens; MDA-MB-231 (TNBC), 5 days, single dose on day 1
From the text: as §1

[21] = system: MDA-MB-435 cells; experiment: Monolayer growth inhibition, crystal violet assay; type: cell-based; details: Homo sapiens; MDA-MB-435 (Melanoma), 5 days, single dose on day 1
From the text: as §1

[22] = system: PC3 cells; experiment: Monolayer growth inhibition, crystal violet assay; type: cell-based; details: Homo sapiens, PC-3; PC3 (Prostate), 5 days, single dose on day 1
From the text: as §1

[23] = system: SUM149 cells; experiment: Monolayer growth inhibition, crystal violet assay; type: cell-based; details: Homo sapiens; SUM149 (TNBC, BRCA Mutant), 5 days, single dose on day 1
From the text: as §1

[24] = system: SUM149-PTXR cells; experiment: Monolayer growth inhibition, crystal violet assay; type: cell-based; details: Homo sapiens; SUM149-PTXR (TNBC, BRCA Mutant), 5 days, single dose on day 1
From the text: as §1

[25] = system: All cell lines; experiment: Monolayer growth inhibition, crystal violet assay, range over all cell lines; type: cell-based; details: 120 h; range of IC50 over all cell lines of the table; read-out: IC50 Values - Crystal Violet (5 Days), Range, All
From the text: as §2

[26] = system: MDA-MB-231 cells; experiment: Soft agar growth inhibition assay; type: cell-based; details: Homo sapiens; MDA-MB-231 (TNBC), 14-22 days; read-out: IC50 Values - Soft Agar (14-22 Days)
[27] = system: MDA-MB-468 cells; experiment: Soft agar growth inhibition assay; type: cell-based, Human; details: Homo sapiens; MDA-MB-468 (TNBC), 14-22 days
[28] = system: 4T1 cells; experiment: Soft agar growth inhibition assay; type: cell-based; details: Mus musculus; 4T1 (TNBC), 14-22 days; read-out: IC50 Values - Soft Agar (14-22 Days)
Procedure: Two agar (Alfa Aesar) solutions (0.8% w/v and 0.4% w/v) were prepared in ultrapure water. The 0.8% agar solution was mixed in equal volumes with 2× media previously prepared from powder (Life Technologies) following the manufacturer's instructions and filter sterilized. The 0.8% agar and media solution was added to 24 well plates (Mandel Scientific) at 500 μl per well. The plates were placed in a humidified incubator at 37° C. with 5% CO2. Next, the 0.4% agar solution was mixed in equal volumes with 2× media. Breast cancer cell lines were added to this solution to achieve a final concentration of 2×10^4 cells per well and […] was added to each well on top of the bottom agar and media layer. […] The plates were returned to the incubator for 10-32 days, with a re-dosing of compounds or DMSO every 7 days. After 10-32 days, colonies were counted in 3 different fields of view for each well.
Representative compounds described herein were tested in the soft agar growth inhibition assay against the 4T1 breast cancer cell line.

[29] = system: phosphorylated Y-box binding protein-1 (YB-1) at serine 102 (P-YB-1S102); experiment: Immunoblotting of cell signalling, loss of P-YB-1 in MDA-MB-231 cells; details: Homo sapiens, MDA-MB-231, read-out: IC50 values for P-YB-1
Procedure: Following desired experimental conditions, breast cancer cell lines grown and treated in 6 well plates or 100 mm culture dishes (Grenier Bio-One) were placed on ice and the supernatant from each well was removed and the cells were washed in cold PBS. Following removal of PBS, cells were exposed to radioimmunoprecipitation assay (RIPA) buffer (50 mM Tris-HCl (pH 8), 150 mM NaCl, 1% NP-40, 0.5% sodium deoxycholate, 0.1% SDS; Fisher Scientific) supplemented with 1% phosphatase inhibitor (Fisher Scientific) and 1% protease inhibitor (Fisher Scientific) for 10 minutes. Samples were transferred to eppendorf tubes, vortexed and then centrifuged at 14 000 rpm for 10 minutes. Supernatants were collected as whole cell lysates.
To begin, the protein content of the lysates was measured using the Bicinchoninic Acid (BCA) Protein Assay Kit (Pierce), which included a protein standard curve generated with bovine serum albumin. Appropriate volumes of samples and loading buffer (50 mM Tris-HCl (pH 6.8), 2% SDS, 10% glycerol, 1% j-mercaptoethanol, 12.5 mM EDTA, 0.02% bromophenol blue) were mixed, ensuring that equal amounts of protein were loaded. For the majority of experiments in this study, 30 μg of protein per well was loaded. Samples were then resolved on SDS-PAGE (polyacrylamide gel electrophoresis) using various percentages of acrylamide gels (8%-12%), depending on the proteins of interest. SDS-PAGE was run in SDS running buffer (25 mM Tris, 192 mM glycine, 0.1% SDS) and then transferred to nitrocellulose membranes (Bio-Rad) in transfer buffer (48 mM Tris, 39 mM glycine, 20% (v/v) methanol) at 100 volts for 90 minutes at room temperature. Immunoblots were then blocked in 5% skim milk in tris-buffered saline with 0.1% Tween-20 (TBS-T; 50 mM Tris-HCl, pH 7.5, 150 mM NaCl, 0.1% (v/v) Tween-20 (Fisher Scientific)) for 1 to 2 hours. Immunoblots were then incubated with selected primary antibodies diluted in TBS-T with 0.1% gelatin (Bio-Rad) and 0.05% sodium azide (Alfa Aesar) overnight. Following washes with TBT-T 4 times for 8 to 10 minutes, immunoblots were incubated with appropriate secondary antibodies conjugated to horseradish peroxidise (Cell Signalling Technology) diluted in TBS-T plus 5% skim milk at a ratio of 1:5000 for 2 hours at room temperature. After an additional round of washes in TBS-T, immunoblots were exposed to combined enhanced chemiluminescence (ECL) reagents (Fisher Scientific) for 1 minute and developed using ChemiDoc MP Imaging System (Bio-Rad). For certain immunoblots, bands of proteins of interest were scanned and band intensity ratios were determined by densitometric analysis (ImageJ). […] Total YB-1 was used as a loading control (1:5000 Abcam). […] To assess whether cells are actively undergoing cell death, the activity of poly ADP ribose polymerase (PARP) (1:1000 CST) was also measured using the immunoblotting method.

| Solubility, 20 mg/ml Solution [1] | IC50 [2] | IC50 [3] | IC50 [4] | IC50 [6] | IC50 [7] | IC50 [8] | IC50 [9] | IC50 [12] | IC50 [14] | IC50 [16] | IC50 [17] | IC50 [18] | IC50 [19] | IC50 [20] | Compound | IC50 [5] | IC50 [10] | IC50 [11] | IC50 [13] | IC50 [15] | further results |
| --- | --- | --- | --- | --- | --- | --- | --- | --- | --- | --- | --- | --- | --- | --- | --- | --- | --- | --- | --- | --- | --- |
| Soluble | 1.2 ± 0.3 µM | 5.4 ± 3.7 µM | 8.3 ± 2.4 µM | 14.7 ± 4.3 µM | 8.3 ± 5.3 µM | 6.5 ± 4.5 µM | 7.1 ± 0.9 µM | 8 ± 3.8 µM | 11 ± 1 µM | 4.6 ± 1.4 µM | 3.7 ± 2.7 µM | 1.1 ± 0.7 µM | 9.5 ± 5.6 µM | 9.1 ± 0.8 µM | C[C@@H]1CNC(=O)c2cc3ccc(C(=O)Nc4ccccc4C(N)=O)nc3n21 [Compound 21, (R)—N-(2-carbamoylphenyl)-9-methyl-6-oxo-6,7,8,9-tetrahydropyrido[3′,2′:4,5]pyrrolo[1,2-a]pyrazine-2-carboxamide] | 12.6 ± 6.4 µM | 2.7 ± 1.3 µM | 1.5 ± 0.8 µM | 1.2 to 14.7 µM | 11.3 ± 4.1 µM | pH of 20 mg/ml solution ([1]; DMSO stock diluted in DMEM, pH test strips): 9; IC50 [21]: 4.8 ± 2.1 µM; IC50 [22]: 4.3 ± 0.5 µM; IC50 [23]: 2.4 ± 1.3 µM; IC50 [24]: 2 ± 0.2 µM; IC50 [25]: 1.1 to 11.3 µM; IC50 [26]: 2 ± 1 µM; IC50 [27]: 0.4 ± 0.1 µM; IC50 [28]: 3.1 ± 0.6 µM |
| Precipitate | 0.5 ± 0.3 µM | 4.4 ± 1.9 µM | 9.2 ± 3.2 µM | 9.8 ± 3.1 µM | 5.6 ± 0.1 µM | 4.5 ± 2.3 µM | 12 ± 4.5 µM | 4.5 ± 4.1 µM | 5.8 ± 0.4 µM | 3.3 ± 1.3 µM | 2.7 ± 2.1 µM | 0.3 ± 0.1 µM | 5.8 ± 2.6 µM | 9.1 ± 1.3 µM | C[C@@H]1CNC(=O)c2c(Cl)c3ccc(C(=O)Nc4cnn(Cc5ccccc5)c4)nc3n21 [Compound 24, (R)—N-(1-benzyl-1H-pyrazol-4-yl)-5-chloro-9-methyl-6-oxo-6,7,8,9-tetrahydropyrido[3′,2′:4,5]pyrrolo[1,2-a]pyrazine-2-carboxamide] | 12.3 ± 5.9 µM | 1.1 ± 0.9 µM | 3.4 ± 2.1 µM | 0.5 to 12.3 µM | 7.5 ± 2.2 µM | IC50 [21]: 5 ± 3.6 µM; IC50 [22]: 6.5 ± 2.8 µM; IC50 [23]: 0.9 ± 0.3 µM; IC50 [24]: 4.5 ± 1.4 µM; IC50 [25]: 0.3 to 9.1 µM; IC50 [26]: 0.4 ± 0.2 µM; IC50 [27]: 2.5 ± 2 µM; IC50 [28]: 0.7 ± 0.3 µM; IC50 [29]: 0.016 µM |
| Precipitate | 4.5 ± 1 µM | 9.9 ± 1 µM | 12.6 ± 3.5 µM | 13.9 ± 3.5 µM | 6.8 ± 6.4 µM | 7.5 ± 2.1 µM | 9.2 ± 1.5 µM | 4.8 ± 0.9 µM | 9.9 ± 3 µM | 6.6 ± 2.3 µM | 4.3 ± 2.1 µM | 2.6 ± 1.5 µM | 6.6 ± 3.1 µM | 6.6 ± 2.1 µM | C[C@@H]1CNC(=O)c2cc3ccc(C(=O)Nc4cnn(Cc5ccc(C(F)(F)F)cc5)c4)nc3n21 [Compound 22, (R)-9-methyl-6-oxo-N-(1-(4-(trifluoromethyl)benzyl)-1H-pyrazol-4-yl)-6,7,8,9-tetrahydropyrido[3′,2′:4,5]pyrrolo[1,2-a]pyrazine-2-carboxamide] | 17.1 ± 2.4 µM | 7.7 ± 4.6 µM | 7.8 ± 4.6 µM | 4.5 to 17.1 µM | 14.2 ± 5.1 µM | IC50 [21]: 3.2 ± 1.3 µM; IC50 [22]: 6.8 ± 1.8 µM; IC50 [23]: 6.2 ± 4.8 µM; IC50 [24]: 8 ± 1.3 µM; IC50 [25]: 2.6 to 14.2 µM; IC50 [26]: 0.2 ± 0.1 µM; IC50 [27]: 6.9 ± 1.7 µM; IC50 [28]: 3.8 ± 1.9 µM; IC50 [29]: 0.024 µM |

Source: US10081632B2, “Substituted tetrahydropyrido[3′,2′:4,5]pyrrolo[1,2-α]pyrazine-2-carboxamides as RSK inhibitors” (Phoenix Molecular Designs, priority 2016, dated 2018)
